# Experimental data: patent publication US20260130933A1, “PHARMACEUTICAL COMPOSITION FOR PREVENTION OR TREATMENT OF NEPHROPATHY AND/OR DIABETES MELLITUS, COMPRISING ENAVOGLIFLOZIN” (DAEWOONG PHARMACEUTICAL CO., LTD., priority 2022, published 2026)
# Test: Example 2: phase 3 trial, enavogliflozin 0.3 mg vs dapagliflozin 10 mg once a day for 24 weeks added to metformin in patients with type 2 diabetes (same efficacy, exploratory and safety endpoints)
# Format: in vivo, human
# Method: Subjects who met the inclusion/exclusion criteria were administered a placebo of the clinical trial drug under single-blind (subject blinding) conditions during a 2-week run-in period while continuing to receive metformin. […] The randomized subjects were administered two tablets of the clinical trial drug for each administration group once a day, and then visited the institution at weeks 6, 12, 18, and 24 during the 24-week administration period to conduct efficacy and safety evaluations.
# • 1. Change in HbA1c at week 24 after administration of clinical trial drug compared to Visit 2 (randomization)
# • 1. Change in HbA1c at each time point of weeks 6, 12, and 18 after administration of clinical trial drug compared to Visit 2 (randomization) • 2. Change in FPG at each time point of weeks 6, 12, 18, and 24 after administration of clinical trial drug compared to Visit 2 (randomization) • 3. Proportion of subjects achieving HbA1c<7% at each time point of weeks 6, 12, 18, and 24 after administration of clinical trial drug • 4. Proportion of subjects achieving HbA1c<6.5% at each time point of weeks 6, 12, 18, and 24 after administration of clinical trial drug • 5. Proportion of subjects achieving therapeutic response (HbA1c change (HbA1c at Visit 2-HbA1c at each evaluation time point)>0.5% or HbA1c<7% at each evaluation time point compared to Visit 2 (randomization)) at each time point of weeks 6, 12, 18 and 24 after administration of clinical trial drug
# • 1. Change in fasting c-peptide at each time point of weeks 6, 12, 18, and 24 after administration of clinical trial drug compared to Visit 2 (randomization) • 2. Change in body weight at each time point of weeks 6, 12, 18, and 24 after administration of clinical trial drug compared to Visit 2 (randomization) • 3. Change in fasting lipid concentration (total cholesterol, LDL-C, HDL-C, and triglycerides) at each time point of weeks 6, 12, 18, and 24 after administration of clinical trial drug compared to Visit 2 (randomization) • 4. Changes in systolic or diastolic blood pressure at each time point of weeks 6, 12, 18, and 24 after administration of clinical trial drug compared to Visit 2 (randomization) • 5. Changes in β-cell function and insulin resistance measured by HOMA-β and HOMA-IR at each time point of weeks 6, 12, 18, and 24 after administration of clinical trial drug compared to Visit 2 (randomization) • 6. Changes in renal function-related indicators (UACR, UGCR) measured by UACR at each time point of weeks 6, 12, 18, and 24 after administration of clinical trial drug compared to Visit 2 (randomization) • 7. Changes in obesity-related indicators (adiponectin, leptin) at each time point of weeks 6, 12, 18, and 24 after administration of clinical trial drug compared to Visit 2 (randomization)
# [1] = Week 24, mPPS1, enavogliflozin minus dapagliflozin
# [2] = Week 24, mPPS2, enavogliflozin minus dapagliflozin
# [3] = week 6, modified per-protocol set 1, enavogliflozin 0.3 mg, dapagliflozin 10 mg
# [4] = week 6, per-protocol set, enavogliflozin 0.3 mg vs dapagliflozin 10 mg
# [5] = week 6, per-protocol set, enavogliflozin 0.3 mg, dapagliflozin 10 mg
smiles,measurement,setting,value
"OC[C@H]1O[C@@H](c2cc(Cc3ccc(C4CC4)cc3)c(Cl)c3c2CCO3)[C@H](O)[C@@H](O)[C@@H]1O [Enavogliflozin, (2S,3R,4R,5S,6R)-2-(7-chloro-6 (4-cyclopropylbenzyl)-2,3-dihydrobenzofuran-4-yl)-6-(hydroxymethyl)tetrahydro-2H-pyran-3,4,5-triol]","Triglycerides, Mean (SD)","Week 24, mPPS1",119.62(58.93) mg/dL
same,"Triglycerides, Median","Week 24, mPPS1",104.00 mg/dL
same,"HDL-C change from baseline, LS mean difference",[1],-0.14 mg/dL
same,"LDL-C change from baseline, LS mean difference",[1],0.71 mg/dL
same,"triglycerides change from baseline, LS mean difference",[1],1.63 mg/dL
same,"Diastolic blood pressure change from baseline, ANCOVA LS mean (SE)","Week 24, mPPS2",−5.41 mmHg
same,"Diastolic blood pressure change from baseline, Mean (SD)","Week 24, mPPS2",−5.40 mmHg
same,"Diastolic blood pressure change from baseline, Median","Week 24, mPPS2",−6.00 mmHg
same,"Diastolic blood pressure, Mean (SD)","Week 24, mPPS2",71.65 mmHg
same,"Diastolic blood pressure, Median","Week 24, mPPS2",71.00 mmHg
same,"Systolic blood pressure change from baseline, ANCOVA LS mean (SE)","Week 24, mPPS2",−5.93(1.01) mmHg
same,"Systolic blood pressure change from baseline, Mean (SD)","Week 24, mPPS2",−6.34(9.75) mmHg
same,"Systolic blood pressure change from baseline, Median","Week 24, mPPS2",−5.00 mmHg
same,"Systolic blood pressure, Mean (SD)","Week 24, mPPS2",123.38(12.55) mmHg
same,"Systolic blood pressure, Median","Week 24, mPPS2",122.00 mmHg
same,"diastolic blood pressure change from baseline, LS mean difference",[2],−1.15 mmHg
same,"systolic blood pressure change from baseline, LS mean difference",[2],0.63 mmHg
same,"FPG change from baseline, LS mean (SE)",week 6,−28.07(2.14) mg/dL
same,"HOMA-IR change from baseline, LS mean (SE)",week 6,−1.47(0.14)
same,"HOMA-β change from baseline, LS mean (SE)",week 6,7.22(5.44)
same,"HbA1c change from baseline, LS mean (SE)",week 6,−0.68(0.04) % p
same,"LDL-C change from baseline, LS mean (SE)",week 6,−0.09(1.89) mg/dL
same,Subjects achieving HbA1c target of <7%,week 6,(53.68) %
same,Subjects achieving HbA1c<6.5%,week 6,12.63%
same,Subjects achieving therapeutic response (HbA1c change >0.5% or HbA1c<7%),week 6,78.95%
same,"UACR change from baseline, LS mean (SE)",week 6,−12.75(10.48) g/kg
same,"UGCR change from baseline, LS mean (SE)",week 6,65.72(2.70) mg/mg
same,"diastolic blood pressure change from baseline, LS mean (SE)",week 6,−2.75(0.69) mmHg
same,"fasting c-peptide change from baseline, LS mean (SE)",week 6,−0.07(0.02) ng/ml
same,"leptin change from baseline, LS mean (SE)",week 6,−2.43(0.46) ng/mL
same,"FPG change from baseline, LS mean difference","week 6, vs dapagliflozin",-4.27 mg/dL
same,"HDL-C change from baseline, LS mean difference","week 6, vs dapagliflozin",-0.49 mg/dL
same,"HOMA-IR change from baseline, LS mean difference","week 6, vs dapagliflozin",−0.16
same,"HOMA-β change from baseline, LS mean difference","week 6, vs dapagliflozin",9.01
same,"HbA1c change from baseline, LS mean difference","week 6, vs dapagliflozin",−0.05 % p
same,"LDL-C change from baseline, LS mean difference","week 6, vs dapagliflozin",-4.29 mg/dL
same,Odds ratio for achieving HbA1c<6.5%,"week 6, vs dapagliflozin",0.83
same,Odds ratio for achieving HbA1c<7%,"week 6, vs dapagliflozin",1.06
same,Odds ratio for achieving therapeutic response,"week 6, vs dapagliflozin",0.98
same,"UACR change from baseline, LS mean difference","week 6, vs dapagliflozin",−20.88
same,"UGCR change from baseline, LS mean difference","week 6, vs dapagliflozin",15.62 mg/mg
same,"body weight change from baseline, LS mean difference","week 6, vs dapagliflozin",0.04 kg
same,"diastolic blood pressure change from baseline, LS mean difference","week 6, vs dapagliflozin",−1.28 mmHg
same,"fasting c-peptide change from baseline, LS mean difference","week 6, vs dapagliflozin",0.00 ng/mL
same,"leptin change from baseline, LS mean difference","week 6, vs dapagliflozin",-0.81 ng/mL
same,"systolic blood pressure change from baseline, LS mean difference","week 6, vs dapagliflozin",−0.58 mmHg
same,"total cholesterol change from baseline, LS mean difference","week 6, vs dapagliflozin",-2.10 mg/dL
same,"triglyceride change from baseline, LS mean difference","week 6, vs dapagliflozin",18.76 mg/dL
same,Subjects achieving HbA1c target of <7%,"week 6, listed as enavogliflozin",53.68%
same,"Change from baseline in total cholesterol, ANCOVA LS mean difference","week 6, modified per-protocol set 1, enavogliflozin 0.3 mg vs dapagliflozin 10 mg",-2.10 mg/dL
same,"Change from baseline in Total cholesterol, ANCOVA LS mean (SE)",[3],4.77(2.19) mg/dL
same,"Change from baseline in Total cholesterol, Mean (SD)",[3],4.34(17.75) mg/dL
same,"Change from baseline in total cholesterol, Median",[3],3.00 mg/dL
same,"fasting Total cholesterol, Mean (SD)",[3],155.77(35.37) mg/dL
same,"fasting Total cholesterol, Median",[3],147.00 mg/dL
same,"Change from baseline in FPG, ANCOVA LS mean difference",[4],-4.27 mg/dL
same,"Change from baseline in HbA1c, ANCOVA LS mean difference",[4],−0.05 % p
same,"Change from baseline in body weight, ANCOVA LS mean difference",[4],0.04 kg
same,"Change from baseline in fasting c-peptide, ANCOVA LS mean difference",[4],0.00 ng/mL
same,"Odds ratio for achieving HbA1c target of <6.5%, logistic regression model",[4],0.83
same,"Odds ratio for achieving therapeutic glycemic response, logistic regression model",[4],0.98
same,"Change from baseline in FPG, ANCOVA LS mean (SE)",[5],-28.07 mg/dL
same,"Change from baseline in FPG, Mean (SD)",[5],-26.91 mg/dL
same,"Change from baseline in FPG, Median",[5],-27.00 mg/dL
same,"Change from baseline in HbA1c, ANCOVA LS mean (SE)",[5],−0.68 % p
same,"Change from baseline in HbA1c, Mean (SD)",[5],−0.62 % p
same,"Change from baseline in HbA1c, Median",[5],−0.57 % p
same,"Change from baseline in body weight, ANCOVA LS mean (SE)",[5],−1.56(0.20) kg
same,"Change from baseline in body weight, Mean (SD)",[5],−1.56(2.30) kg
same,"Change from baseline in body weight, Median",[5],-1.70 kg
